Experiment: incorporation of adriamycin into MFG, by difference, spectrofluorometric determination
Type: physicochemical
Settings: 0.9 ml packed MFG with 0.1 ml adriamycin 1 mg/ml in PBS, overnight at room temperature
Experimental: The milk fat globules to be loaded with drug are obtained from raw bovine milk by centrifugation at 1,500 x g for 10 min at room temperature followed by removal of the underlying (sub-natant) aqueous material. The MFG is washed three times by the addition of phosphate buffered saline, pH 7.4 (PBS) to the original volume followed by centrifugation at 1500 x g for 10 min and removal of the sub-natant fluid. Adriamycin is rapidly and stably loaded into the MFG very efficiently by incubating 0.9 ml packed MFG with 0.1 ml adriamycin, dissolved in PBS to a concentration of 1 mg/ml, overnight at room temperature. The resultant MFG is then transferred to a 10 ml syringe fitted with a stopcock, brought to 10 ml with PBS and centrifuged at 1500 x g for 10 min. The sub-natant fluid is removed by opening the stopcock and the milk fat globule layer is washed three times by gentle suspension in PBS followed by centrifugation. […] The presence of adriamycin is detected in the MFG by its fluorescence emission at 590 nm using fluorescence microscopy. Alternatively, the amount of incorporated adriamycin can be calculated by difference, after determination of the amount of adriamycin remaining in the first sub-natant fraction by spectrofluorometric determination using an excitation wavelength of 470 nm and an emission wavelength of 590 nm. […]

added drug incorporated into the MFG: up to 80%
SMILES: COc1cccc2c1C(=O)c1c(O)c3c(c(O)c1C2=O)C[C@@](O)(C(=O)CO)C[C@@H]3O[C@H]1C[C@H](N)[C@H](O)[C@H](C)O1 [adriamycin]

— EP0306971A2, “Use of milk fat globules as carriers for drugs and as microflotation devices in immunoassays and cell/molecular fractionation” (Bankert, Richard B., priority 1987, dated 1989)
